11 compounds from US10344054B2, “Angiotensin-1-receptor antagonists” (Ferring B.V., priority 2016, dated 2019) can be followed below.

For orientation: pIC50 means the negative decadic logarithm of the IC50, by convention in mol/L.

Experiment [1] deals with T1, hAT1R (Homo sapiens, UniProt P30556).
T1 sequence (P30556 1-359): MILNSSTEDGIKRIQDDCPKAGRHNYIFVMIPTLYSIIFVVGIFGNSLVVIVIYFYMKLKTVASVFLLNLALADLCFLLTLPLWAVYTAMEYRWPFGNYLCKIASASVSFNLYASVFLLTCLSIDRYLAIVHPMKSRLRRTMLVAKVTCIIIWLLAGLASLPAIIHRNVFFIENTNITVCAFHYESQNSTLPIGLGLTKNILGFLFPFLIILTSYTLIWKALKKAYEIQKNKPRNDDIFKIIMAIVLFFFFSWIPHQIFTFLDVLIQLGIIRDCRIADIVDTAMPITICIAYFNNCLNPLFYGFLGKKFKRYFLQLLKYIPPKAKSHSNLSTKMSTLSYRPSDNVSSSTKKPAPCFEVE
The experiment in a line: FLIPR calcium flux assay, Part II: antagonist activity against Angiotensin II. As to hAT1R Antagonist Efficacy Antag (%) Ave: Angiotensin II 10 nM final concentration. It is filed as cell-based. Particulars: for Emax: read-out: hAT1R Antagonist Efficacy Antag (%) Ave; for pIC50: read-out: hAT1R Antagonist IC50 Ave. On the procedure:
(§1) AT1 receptor (AT1R) agonists increase intracellular flux of calcium ions. AT1R antagonists can reduce the agonist effect. […] Compounds were first tested for agonism (Part I) followed by addition of the AT1R agonist angiotensin II to test for antagonist activity (Part II). This assay used a stable hAT1R expressing cell line (ChanTest hAT1R; ChanTest Corp A628). Intracellular flux of calcium in response to agonist was measured through real-time measurement of fluorescence induced through the interaction of Ca2+ (released from intracellular stores) and calcium-sensitive dye. In Part I, cells were exposed to varying concentrations of test compounds and immediately measured for agonist activity (EC50 and Efficacy).
(§2) ChanTest hAT1R stable cells were maintained in Ham's F12 containing 10% (v/v) heat inactivated fetal bovine serum (FBS-HI), 4 mM Glutamax, 1% NEAA, 50 ng/mL plasmocin, 400 μg/mL G418 at 37° C. under 5% CO2 in a humidified atmosphere.
(§3) For FLIPR assay, ChanTest hAT1R cells were trypsinized with 6 ml of Trypsin EDTA solution and harvested in phenol-red free DMEM containing 10% FBS-HI, 4 mM Glutamax and counted, spun down and resuspended in the same medium. The cell suspension was added to the wells of 384-well black PDL clear bottom plates at 2.5×10^4 cells/well, 20 μl/well.
(§4) Preparation of Loading Buffer:
(§5) • Loading Buffer: 1 vial of Calcium 5 Bulk Assay reagent was dissolved in 100 ml of 1× HBSS-20 mM Hepes buffer. • Probenecid was resuspended at 1 M in 1 M NaOH. Once the probenecid had gone into solution, an equal volume of H2O was added to make a solution of 500 mM followed by a 1:100 dilution in the Loading Buffer for a working concentration of 5 mM. The pH was adjusted to 7.4 using 1 M NaOH. Loading the Cells with Loading Buffer • Cell plates were removed from the incubator and 25 μl of Loading Buffer containing probenecid (5 mM) added to each well. • Plates were incubated for 1 hour at 37° C. under 5% CO2 in a humidified atmosphere. […] The remaining steps of the assay were carried forward by FLIPR Tetra. A baseline reading was taken at 1-second (s) intervals for 10 s followed by the addition of 5 μl of 10× compounds. The compound-induced fluorescence signal was then measured for 3 minutes with readings taken at 1-s intervals. • The cell plate was removed from the FLIPR and set aside for an additional 17 minutes. • The cell plate was then transferred back to the FLIPR Tetra, along with the 384 well Angiotensin II agonist dilution plate. A baseline reading was taken at 1-second (s) intervals for 10 seconds, followed by the addition of 5.5 μl of 10× Angiotensin II agonist. The agonist-induced fluorescence signal was then measured for 3 minutes with readings taken at 1-s intervals. • Overall, each well in the FLIPR assay was composed of the following components in a total volume of 55.5 μl:
(§6) Time-course results from the FLIPR Calcium 5 assay were expressed as relative fluorescence light units (RFU). The maximum minus minimum values (Max−Min) were used to quantify the strength of the signal. Mean RFU were calculated from replicate values and plotted on the y-axis versus compound concentration on a logarithmic scale on the x-axis, and a single-binding site, four parameter concentration response model: (MIN+((MAX−MIN)/(1+((EC50/x)^Hill)))), was used to perform non-linear regression analysis, generating concentration response curves. Reported parameters included agonist potency EC50 (the concentration causing half-maximal agonist response), antagonist potency IC50 (the concentration causing half-maximal inhibition of the agonist response for antagonist compounds) and efficacy (% MPE: percent of the maximal possible effect).
(In general: Calcium flux is commonly read through the fluorescence of an indicator in the cells.)

Experiment [2] has as its target T1, hAT1R. The experiment in a line: FLIPR calcium flux assay, Part I: agonist activity. It is filed as cell-based. Particulars: ChanTest hAT1R stable cells; % MPE, percent of the maximal possible effect; read-out: hAT1R Agonist Efficacy Agonist (%) Ave. On the procedure: as §1, §2, §3, §4, §5, §6

Structures are written as SMILES. pIC50: −log10 of the molar value. Starred links: 1 amine or outer side, 2 acyl side, 3 side chain; linkers in the order of their positions; H or OH if unused. Non-standard residues stand in square brackets, D forms with d. Residues, ends and D or L forms follow the SMILES beside them. X1 = O=C(CN(C[C@H](O)[C@@H](O)[C@H](O)[C@H](O)CO)[*:1])[*:2]; dPhe(2-Me) = Cc1ccccc1C[C@@H](N)C(=O)O; d1Nal = N[C@H](Cc1cccc2ccccc12)C(=O)O; Chg = N[C@H](C(=O)O)C1CCCCC1

For the compound `CNCC(=O)N[C@@H](CCCNC(=N)N)C(=O)N[C@H](C(=O)N[C@@H](Cc1ccc(O)cc1)C(=O)N[C@@H](CC1CCCCC1)C(=O)N[C@@H](Cc1c[nH]cn1)C(=O)N1CCC[C@H]1C(=O)N[C@H](Cc1cccc2ccccc12)C(=O)O)C(C)C` [Compound 14, Sar-Arg-Val-Tyr-Cha-His-Pro-(D-1Nal)-OH] (HELM PEPTIDE1{[Sar].R.V.Y.[Cha].H.P.[O=C(O)[C@@H](Cc1cccc2ccccc12)N[*:1]]}$$$$V2.0), on hAT1R [1], the Emax turned out to be 100% and the negative-log IC50 (pIC50) was 8.10. For the same compound, the Emax at hAT1R [2] was determined as 5%.
In the case of `CNCC(=O)N[C@@H](CCCNC(=N)N)C(=O)N[C@H](C(=O)N[C@@H](Cc1ccc(O)cc1)C(=O)N[C@@H](CCCCN)C(=O)N[C@@H](Cc1c[nH]cn1)C(=O)N1CCC[C@H]1C(=O)N[C@H](Cc1cccc2ccccc12)C(=O)O)C(C)C` [Compound 2, Sar-Arg-Val-Tyr-Lys-His-Pro-(D-1Nal)-OH] (HELM PEPTIDE1{[Sar].R.V.Y.K.H.P.[O=C(O)[C@@H](Cc1cccc2ccccc12)N[*:1]]}$$$$V2.0), on hAT1R [1], the Emax came out at 100% and the pIC50 was 7.78. Further, at hAT1R [2], the Emax amounted to 1%.
As for `CC(C)[C@H](NC(=O)[C@H](CCCNC(=N)N)NC(=O)CNC[C@H](O)[C@@H](O)[C@H](O)[C@H](O)CO)C(=O)N[C@@H](Cc1ccc(O)cc1)C(=O)N[C@H](C(=O)N[C@@H](Cc1c[nH]cn1)C(=O)N1CCC[C@H]1C(=O)N[C@H](Cc1cccc2ccccc12)C(=O)O)C1CCCCC1` [Compound 40, Glac-Arg-Val-Tyr-Chg-His-Pro-(D-1Nal)-OH] (H-[X1]RVY[Chg]HP[d1Nal]-OH), at hAT1R [1], the Emax worked out at 101% and the pIC50 was 7.66. Moreover, at hAT1R [2], the Emax was 5%.
As for `CNCC(=O)N[C@@H](CCCNC(=N)N)C(=O)N[C@H](C(=O)N[C@@H](Cc1ccc(O)cc1)C(=O)N[C@H](C(=O)N[C@@H](Cc1c[nH]cn1)C(=O)N1CCC[C@H]1C(=O)N[C@H](Cc1csc2ccccc12)C(=O)O)C(C)C)C(C)C` [Compound 10, Sar-Arg-Val-Tyr-Val-His-Pro-(D-(3-benzothienyl)alanine)-OH] (HELM PEPTIDE1{[Sar].R.V.Y.V.H.P.[O=C(O)[C@@H](Cc1csc2ccccc12)N[*:1]]}$$$$V2.0), the Emax was found to be 99% at hAT1R [1] and 5% on hAT1R [2]. Further, the pIC50 on hAT1R [1] was 8.02.
For `CNCC(=O)N[C@@H](CCCNC(=N)N)C(=O)N[C@H](C(=O)N[C@@H](Cc1ccc(O)cc1)C(=O)N[C@@H](Cc1ccc(N)cc1)C(=O)N[C@@H](Cc1c[nH]cn1)C(=O)N1CCC[C@H]1C(=O)N[C@H](Cc1ccccc1Cl)C(=O)O)C(C)C` [Compound 20, Sar-Arg-Val-Tyr-Aph-His-Pro-(D-Phe(2-Cl))—OH] (HELM PEPTIDE1{[Sar].R.V.Y.[Nc1ccc(C[C@H](N[*:1])C(=O)[*:2])cc1].H.P.[O=C(O)[C@@H](Cc1ccccc1Cl)N[*:1]]}$$$$V2.0), at hAT1R [1], the Emax was determined as 99% and the pIC50 is 8.28. Moreover, the Emax on hAT1R [2] stood at 5%.
For the compound `CC(C)[C@H](NC(=O)[C@H](CCCNC(=N)N)NC(=O)CNC[C@H](O)[C@@H](O)[C@H](O)[C@H](O)CO)C(=O)N[C@@H](Cc1ccc(O)cc1)C(=O)N[C@H](C(=O)N[C@@H](Cc1c[nH]cn1)C(=O)N1CCC[C@H]1C(=O)N[C@H](Cc1ccccc1-c1ccccc1)C(=O)O)C(C)C` [Compound 39, Glac-Arg-Val-Tyr-Val-His-Pro-(D-Phe(2-Ph))—OH] (HELM PEPTIDE1{[O=C(CNC[C@H](O)[C@@H](O)[C@H](O)[C@H](O)CO)[*:2]].R.V.Y.V.H.P.[O=C(O)[C@@H](Cc1ccccc1-c1ccccc1)N[*:1]]}$$$$V2.0), on hAT1R [1], the Emax was 101% and the pIC50 was 7.57. In addition, the Emax at hAT1R [2] worked out at 8%.
Consider `CNCC(=O)N[C@@H](CCCNC(=N)N)C(=O)N[C@H](C(=O)N[C@@H](Cc1ccc(O)cc1)C(=O)N[C@H](C(=O)N[C@@H](Cc1c[nH]cn1)C(=O)N1CCC[C@H]1C(=O)N[C@H](Cc1c(C)cccc1C)C(=O)O)C(C)C)C(C)C` [Compound 8, Sar-Arg-Val-Tyr-Val-His-Pro-(D-Phe(2,6-diMe))—OH] (HELM PEPTIDE1{[Sar].R.V.Y.V.H.P.[Cc1cccc(C)c1C[C@@H](N[*:1])C(=O)O]}$$$$V2.0), for which, at hAT1R [1], the Emax was 101% and the pIC50 was 8.07. Besides, on hAT1R [2], the Emax was 3%.
`Cc1ccccc1C[C@@H](NC(=O)[C@@H]1CCCN1C(=O)[C@H](Cc1c[nH]cn1)NC(=O)[C@@H](NC(=O)[C@H](Cc1ccc(O)cc1)NC(=O)[C@@H](NC(=O)[C@H](CCCNC(=N)N)NC(=O)CNC[C@H](O)[C@@H](O)[C@H](O)[C@H](O)CO)C(C)C)C1CCCCC1)C(=O)O` [Compound 46, Glac-Arg-Val-Tyr-Chg-His-Pro-(D-Phe(2-Me))—OH] (H-[X1]RVY[Chg]HP[dPhe(2-Me)]-OH): on hAT1R [1], the Emax was determined as 100% and the pIC50 is 7.65. Further, on hAT1R [2], the Emax worked out at 6%.
Turning to `CNCC(=O)N[C@@H](CCCNC(=N)N)C(=O)N[C@H](C(=O)N[C@@H](Cc1ccc(O)cc1)C(=O)N[C@H](C(=O)N[C@@H](Cc1c[nH]cn1)C(=O)N1CCC[C@H]1C(=O)N[C@H](Cc1ccccc1C#N)C(=O)O)C(C)C)C(C)C` [Compound 5, Sar-Arg-Val-Tyr-Val-His-Pro-(D-Phe(2-CN))—OH] (HELM PEPTIDE1{[Sar].R.V.Y.V.H.P.[N#Cc1ccccc1C[C@@H](N[*:1])C(=O)O]}$$$$V2.0), the Emax stood at 100% on hAT1R [1] and 5% on hAT1R [2]. For the same compound, the pIC50 at hAT1R [1] was 7.22.
Consider `CNCC(=O)N[C@@H](CCCNC(=N)N)C(=O)N[C@H](C(=O)N[C@@H](Cc1ccc(O)cc1)C(=O)N[C@H](C(=O)N[C@@H](Cc1c[nH]cn1)C(=O)N1CCC[C@H]1C(=O)N[C@H](Cc1ccccc1Cl)C(=O)O)C1CCCCC1)C(C)C` [Compound 19, Sar-Arg-Val-Tyr-Chg-His-Pro-(D-Phe(2-Cl))—OH] (HELM PEPTIDE1{[Sar].R.V.Y.[O=C([C@@H](N[*:1])C1CCCCC1)[*:2]].H.P.[O=C(O)[C@@H](Cc1ccccc1Cl)N[*:1]]}$$$$V2.0), for which the results for the Emax on hAT1R [1] and at hAT1R [2] were 99% and 8%, respectively. Further, the pIC50 at hAT1R [1] is 7.85.
On the same counts, the results for `CNCC(=O)N[C@@H](CCCNC(=N)N)C(=O)N[C@H](C(=O)N[C@@H](Cc1ccc(O)cc1)C(=O)N[C@@H](Cc1cscn1)C(=O)N[C@@H](Cc1c[nH]cn1)C(=O)N1CCC[C@H]1C(=O)N[C@H](Cc1ccccc1Cl)C(=O)O)C(C)C` [Compound 24, Sar-Arg-Val-Tyr-(Ala(4-Thz))-His-Pro-(D-Phe(2-Cl))—OH] (HELM PEPTIDE1{[Sar].R.V.Y.[O=C([C@H](Cc1cscn1)N[*:1])[*:2]].H.P.[O=C(O)[C@@H](Cc1ccccc1Cl)N[*:1]]}$$$$V2.0) are 99%, 4% and 8.15.
